This note sets out measurements from ChEMBL document CHEMBL5726596, “Pyrazolo pyrimidine derivatives and their use as MALT1 inhibitors” (2017).

The assay concerns the target T1, Mucosa-associated lymphoid tissue lymphoma translocation protein 1 (Homo sapiens, UniProt Q9UDY8).
T1 sequence (Q9UDY8 whole entry): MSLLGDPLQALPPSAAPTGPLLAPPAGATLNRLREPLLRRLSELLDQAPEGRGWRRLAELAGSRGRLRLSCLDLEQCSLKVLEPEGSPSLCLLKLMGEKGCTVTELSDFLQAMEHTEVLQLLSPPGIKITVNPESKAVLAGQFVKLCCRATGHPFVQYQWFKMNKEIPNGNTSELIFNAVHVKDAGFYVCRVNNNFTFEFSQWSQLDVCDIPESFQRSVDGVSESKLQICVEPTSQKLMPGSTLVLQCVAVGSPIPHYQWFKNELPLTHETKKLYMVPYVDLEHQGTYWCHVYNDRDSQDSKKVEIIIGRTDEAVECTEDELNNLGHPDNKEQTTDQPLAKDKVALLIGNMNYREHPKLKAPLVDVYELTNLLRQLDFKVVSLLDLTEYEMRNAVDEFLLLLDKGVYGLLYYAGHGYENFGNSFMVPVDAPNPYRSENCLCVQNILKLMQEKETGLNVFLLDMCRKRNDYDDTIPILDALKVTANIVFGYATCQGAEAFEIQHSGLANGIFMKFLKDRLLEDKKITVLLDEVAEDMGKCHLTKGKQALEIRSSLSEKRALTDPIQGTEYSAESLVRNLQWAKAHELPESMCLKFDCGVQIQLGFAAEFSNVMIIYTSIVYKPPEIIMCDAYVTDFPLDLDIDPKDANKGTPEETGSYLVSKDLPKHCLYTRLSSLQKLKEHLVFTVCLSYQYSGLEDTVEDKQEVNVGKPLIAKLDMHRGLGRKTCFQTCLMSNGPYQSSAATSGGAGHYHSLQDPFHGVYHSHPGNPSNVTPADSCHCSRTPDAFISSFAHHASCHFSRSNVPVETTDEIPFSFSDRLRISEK
The assay is described as follows: The assay buffer consists of 200 mM Tris/HCl at pH 7.5, 0.8 M Na citrate, 100 μM EGTA, 100 μM DTT and 0.05% (w/v) CHAPS. […] Test compounds were dissolved in 100% (v/v) DMSO or a mixture containing 90% (v/v) DMSO and 10% (v/v) H2O at a stock concentration of 100 mM. Serial dilutions of test compounds were prepared using either 100% (v/v) DMSO or a mixture containing 90% (v/v) DMSO and 10% (v/v) H2O.

As usually defined, the IC50 is the concentration that inhibits the measured activity by half. With `CCOc1ncc(NC(=O)Nc2cnc3cc(Cl)nn3c2C(C)C)cc1Cl`, the IC50 was 5 nM.
